Columns and labels:
Type in all cases: cell-based, human
[1] = tested on: caspase-8 activity in LNCaP cells; assay: Caspase colorimetric protease assay; conditions: 24 h
Procedure: (§1) Caspase activity was determined using ApoTarget caspase colorimetric protease assay sampler kit (KHZ1001; Invitrogen) according to the manufacturer’s instructions. Briefly, both the PCa cells were treated with increasing doses of conjugate and RESV for 24 h. The cells were then collected, washed in PBS, and lysed in 50 μl lysis buffer on ice for 10 min. After centrifugation, the supernatant containing 150 μg proteins were incubated with 200 μM of caspase-3 (Ac-DEVD-pNA), caspase-8 (Ac-IETD-pNA) and caspase-9 (Ac-LEHD-pNA) substrates respectively in reaction buffer at 37°C for 1 h in 96 well flat bottom plate. Levels of released pNA were then measured at 405 nm wavelength with ELISA plate reader (Fluostar optima, BMG Labtech, Germany). The fold-increase in caspase-3, -8, and -9 activities were determined by direct comparison to the level of un-induced control. For the caspase inhibitor assay, cells were pretreated with a synthetic pan-caspase inhibitor (Z-VAD-FMK), caspase-8 inhibitor (Z-IETD-FMK) and caspase-9 inhibitor (Z-LEHD-FMK) for 1 h before the addition of conjugate and the cell death were analyzed by MTT assay as discussed earlier.

[2] = tested on: caspase-9 activity in LNCaP cells; assay: Caspase colorimetric protease assay; conditions: 24 h
Procedure: as §1

p-ERK in LNCaP cells = assay: Immunoblot of ERK phosphorylation; conditions: highest dose, 24 h
Procedure: The whole-cell lysates were prepared as described previously in immunoprecipitation (IP) buffer containing 50 mM Tris-HCl (pH 8.0), 150 mM NaCl, 5 mM EDTA, and 1% Triton X-100. Protein aliquots of 500 μg were then incubated overnight at 4°C using 2 μg of antibody directed against AR. The Protein A-Cl Agarose beads were then added and further incubated for 6 h at 4°C. The immunoprecipitates were washed four times with the IP buffer and the immunocomplexes were recovered by boiling in SDS sample buffer. Finally the western blot was carried out using anti-AR, anti-SRC-1 and anti-GRIP-1 antibodies (Santa Cruz, CA, USA). For western blot analysis, the cell lysates were prepared after harvesting them in lysis buffer. About 40 μg of total protein was electrophoresed by 12% SDS-PAGE, and the western blotting was carried out using standard protocol. In brief, the analyzed proteins were transferred to nylon membranes. The blots were then blocked with TBST buffer (20 mM Tris-Cl, pH 7.5, 150 mM sodium chloride, 0.05% Tween-20) containing 5% skim milk powder. They were then washed with TBST buffer and incubated overnight at 4°C with the same buffer containing appropriate amounts of primary antibodies: caspase-3, Bax, Bcl-2, Akt, p-Akt, ERK, p-ERK, AR, SRC-1, GRIP-1 (1∶500) and β-actin (1∶1000). […]

[3] = tested on: caspase-3 expression in LNCaP cells; assay: Immunoblot analysis of apoptotic markers; conditions: highest dose (40 μM), immunoblot densitometry
Procedure: (§2) The whole-cell lysates were prepared as described previously in immunoprecipitation (IP) buffer containing 50 mM Tris-HCl (pH 8.0), 150 mM NaCl, 5 mM EDTA, and 1% Triton X-100. Protein aliquots of 500 μg were then incubated overnight at 4°C using 2 μg of antibody directed against AR. The Protein A-Cl Agarose beads were then added and further incubated for 6 h at 4°C. The immunoprecipitates were washed four times with the IP buffer and the immunocomplexes were recovered by boiling in SDS sample buffer. Finally the western blot was carried out using anti-AR, anti-SRC-1 and anti-GRIP-1 antibodies (Santa Cruz, CA, USA). For western blot analysis, the cell lysates were prepared after harvesting them in lysis buffer. About 40 μg of total protein was electrophoresed by 12% SDS-PAGE, and the western blotting was carried out using standard protocol. In brief, the analyzed proteins were transferred to nylon membranes. The blots were then blocked with TBST buffer (20 mM Tris-Cl, pH 7.5, 150 mM sodium chloride, 0.05% Tween-20) containing 5% skim milk powder. They were then washed with TBST buffer and incubated overnight at 4°C with the same buffer containing appropriate amounts of primary antibodies: caspase-3, Bax, Bcl-2, Akt, p-Akt, ERK, p-ERK, AR, SRC-1, GRIP-1 (1∶500) and β-actin (1∶1000). The blots were then washed and incubated with anti-rabbit secondary antibody (1∶20,000) conjugated with horseradish peroxidase (HRP). Color development was performed in the dark by using an ECL kit (Amersham, GE Healthcare, Buckinghamshire, UK). The developed blots were subjected to densitometric analysis by ImageJ 1.43 software (NIH, USA) using β-actin as internal control.

[4] = tested on: caspase-3 expression in PC-3 cells; assay: Immunoblot analysis of apoptotic markers; conditions: PC-3, highest dose (40 μM), immunoblot densitometry
Procedure: as §2

PC-3 cells = assay: Annexin-V/PI apoptosis assay by flow cytometry; conditions: 24 h
Procedure: (§3) Cell cycle distribution and Annexin V/Propidium iodide (PI) positive cells were analyzed using flow cytometry. In brief, first the cells were seeded and treated with 0, 10, 20 and 40 μM conjugate in complete medium for 24 h. This was followed by trypsinizing and fixing in 70% ethanol, and finally washing with PBS. Subsequently, the cells were treated with RNase A (50 μg/ml), stained with PI (50 μg/ml) and incubated in the dark for 30 min at room temperature and analyzed by flow cytometry for cell cycle distribution. For apoptosis, the conjugate treated cells were stained with Alexa-Fluor 488-conjugated Annexin-V using the Vybrant-Apoptosis Assay Kit from Invitrogen (USA) as per the manufacturer’s protocol. The stained cells were then analyzed by fluorescence activated cell sorting (FACS Calibur, BD Biosciences, San Jose, CA, USA) and the data were standardized using Cell Quest 3.3 software.

LNCaP cells = assay: Annexin-V/PI apoptosis assay by flow cytometry; conditions: 24 h
Procedure: as §3

[5] = tested on: cleaved caspase-3 in PC-3 cells; assay: Akt/ERK siRNA silencing, cleaved caspase-3 immunoblot
Procedure: The siRNAs against human Akt and ERK and control siRNA were purchased commercially from Santa Cruz Biotechnology (USA). The LNCaP and PC-3 PCa cells were transfected with siRNAs (at a final concentration of 100 nM) using polyfect transfection reagent (Qiagen, CA, USA) according to manufacturer’s instructions. After 24 h of transfection, the cells were washed properly and replaced with fresh medium. The cells were then treated with 20 μM conjugate for 24 h, and finally protein lysates were prepared on completion of treatment. The levels of p-Akt, p-ERK and cleaved caspase-3 expressions were detected by Western blot analysis.
Figure 5 Differential role of PI3K/Akt and MAPK/ERK pathways in conjugate induced apoptosis of prostate cancer cells. Effects of siRNA mediated silencing of Akt and ERK on conjugate-induced apoptosis of (A) PC-3 and (B) LNCaP cells. LNCaP and PC-3 PCa cells were transfected with siRNAs (at a final concentration of 100 nM) using polyfect transfection reagent. After 24 h of transfection the cells were treated with 20 μM conjugate and allowed to grow for another 24 h. The cell lysates were prepared and the level of p-Akt, p-ERK and cleaved caspase-3 proteins were detected by immunoblot analysis. The histogram on the right panel of each figure represents densitometric analyses of the image data and expressed as percent of control where the results are mean ± SEM of three independent experiments. *and # represents statistically significant difference with respect to control and 20 μM conjugate treated groups respectively at p<0.05.

COc1cc(/C=C/c2ccc(O)c(/C=N/NC(N)=S)c2)cc(OC)c1 [conjugate, Pterostilbene-isothiocyanate conjugate]
caspase-8 activity [1]: significant increase
caspase-9 activity [2]: significant increase
inhibition of p-ERK (p-ERK in LNCaP cells): almost completely inhibited
enhancement of caspase-3 expression [3]: about 8.5 folds
enhancement of caspase-3 expression [4]: ~6 folds
early apoptotic cells (Annexin V positive only, lower right quadrant) (PC-3 cells; PC-3, 20 μM): about 44%
late apoptotic cells (Annexin V and PI positive, upper right quadrant) (PC-3 cells; PC-3, 20 μM): 12%
early apoptotic cells (Annexin V positive only, lower right quadrant) (PC-3 cells; PC-3, 40 μM): ~68%
late apoptotic cells (Annexin V and PI positive, upper right quadrant) (PC-3 cells; PC-3, 40 μM): 16%
early apoptotic cells (Annexin V positive only, lower right quadrant) (LNCaP cells; 20 μM): 52%
late apoptotic cells (Annexin V and PI positive, upper right quadrant) (LNCaP cells; 20 μM): 8%
late apoptotic cells (Annexin V and PI positive, upper right quadrant) (LNCaP cells; 40 μM): 18.5%
increase in cleaved caspase-3 protein expression vs control ([5]; PC-3, 20 μM conjugate alone, 24 h): 3.7 folds
increase in cleaved caspase-3 protein expression vs control ([5]; PC-3, 20 μM conjugate in presence of Akt siRNA): 4.8 folds
increase in expression of caspase-3 vs control ([5]; PC-3, 20 μM conjugate in presence of ERK siRNA): 3.9 folds
